Test results from patent US20250170117A1, “MODULATORS OF ACKR3 AND USES THEREOF” (InterAx Biotech AG, priority 2022, published 2025).

These compounds were tested against T1, NanoLuc-hACKR3 (Homo sapiens, UniProt P25106) (assay: NanoBRET binding study (displacement of fluorescently labelled CXCL12)). Settings: displacement of 0.3 nM CXCL12-AF647; membranes of HEK293T cells expressing NanoLuc-ACKR3; 1 hour incubation; read-out: Affinity.
T1 construct: expressed in transfected cells; host or cells: HEK293T (transient, PEI; membrane preparation)
T1 sequence (P25106 whole entry): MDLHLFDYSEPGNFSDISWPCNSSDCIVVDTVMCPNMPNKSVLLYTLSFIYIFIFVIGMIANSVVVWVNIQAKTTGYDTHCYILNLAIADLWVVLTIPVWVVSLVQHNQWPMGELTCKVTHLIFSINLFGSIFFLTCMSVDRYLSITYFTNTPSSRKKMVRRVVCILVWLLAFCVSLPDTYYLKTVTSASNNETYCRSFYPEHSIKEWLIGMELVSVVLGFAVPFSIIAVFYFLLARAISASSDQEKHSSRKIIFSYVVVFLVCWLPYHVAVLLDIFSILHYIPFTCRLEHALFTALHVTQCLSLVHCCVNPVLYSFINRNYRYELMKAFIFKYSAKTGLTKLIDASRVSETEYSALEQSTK
Procedure: Membranes of HEK293T cells that transiently express the NanoLuc-hACKR3 were produced. 2 million HEK293T cells were seeded per […] dish and were transfected the next day using a DNA/PEI-mix containing 0.25 μg plasmid DNA encoding for the ACKR3, 4.75 μg pcDEF3 plasmid DNA and 30 μg linear PEI. Two days after transfection, cells were collected in PBS and pelleted by centrifugation. Cell pellets were resuspended in ice-cold membrane buffer (15 mM Tris, 0.3 mM EDTA, 2 mM MgCl2, pH 7.4 at 4° C.) and were dounce-homogenized on ice by plunging the pestle […] with 1500 rpm. Cell homogenates were subsequently subjected to two freeze-thaw cycles using liquid nitrogen. Next, the cell homogenates were centrifuged at 40,000 g and pellets were resuspended in Tris-sucrose buffer (20 mM Tris, 250 mM Sucrose, pH 7.4 at 4° C.). Finally, the membrane samples were homogenized using a 23-gauge needle, snap-frozen with liquid nitrogen and stored until further experimentation at −80° C.
Binding reactions were measured in triplicate on white low-volume 384-well plates and started by combining 0.3 nM fluorescently labelled CXCL12 (CXCL12 labelled with a AF647® dye in a molar ratio of dye:peptide of 1:1, purchased from ALMAC, h-SDF-1α (AF647®), cat. No. CAF-11, Sequence:
[…](Ale xa647®)ALN), increasing concentrations of test compound (10^−5 M-10^−11 M) with 35 ng membranes (protein content) per well of HEK293T cells expressing the NanoLuc-ACKR3. All dilutions were prepared in HBSS supplemented with 0.2% BSA. After assembling the binding reaction, the plate was flash-centrifuged at 500 g. Binding reactions were then incubated for 1 hour after which NanoGlo substrate was added (310 times diluted from stock concentration) to a final volume of 13.5 μL. The reaction plate was again pulse-centrifuged to 500 g and the total light intensity was measured for 460 nm wavelength with 80 nm bandwidth and separately for wavelengths ≥610 nm using the PHERAstar-FSX (BMG Labtech, Ortenberg, Germany) with a dual emission filter. The ratio of light intensities (>610 nm over 460 nm) is a measure for the relative binding of CXCL12-A647 to the NanoLuc-ACKR3. The pharmacological data are presented in Appendix 1.

Ki [µM]	Structure (SMILES)
> 10	O=C(NCC1CCN(C2CCCCC2)CC1)c1cc(-c2ccccc2)on1 [Molecule 2]
> 10	O=C(NCC1CCN(C(=O)C2CC2)CC1)c1cc(-c2ccc(F)cc2F)on1 [Molecule 7]
> 10	O=C(NCC1CCN(C(=O)C2CCC2)CC1)c1cc(-c2ccc(F)cc2F)on1 [Molecule 8]
> 10	O=C(NCC1CCN(C(=O)C2CCCCC2)CC1)c1cc(-c2ccc(F)cc2F)on1 [Molecule 9]
1 to 10	O=C(NCC1CCN(C(=O)c2cnc3ccccc3n2)CC1)c1cc(-c2ccc(F)cc2F)on1 [Molecule 12]
> 10	O=C(NCC1CCN(S(=O)(=O)C2CC2)CC1)c1cc(-c2ccc(F)cc2F)on1 [Molecule 14]
0.1 to 1	O=C(NCC1CCN(CC2CCCC2)CC1)c1cc(-c2ccc(F)cc2F)on1 [Molecule 16]
0.1 to 1	O=C(NCC1CCN(Cc2ccccc2)CC1)c1cc(-c2ccc(F)cc2F)on1 [Molecule 17]
0.1 to 1	O=C(NCC1CCN(C2CCC2)CC1)c1cc(-c2ccc(F)cc2F)on1 [Molecule 18]
0.1 to 1	O=C(NCC1CCN(C2CCCC2)CC1)c1cc(-c2ccc(F)cc2F)on1 [Molecule 19]
0.1 to 1	O=C(NCC1CCN(C2CCCCCC2)CC1)c1cc(-c2ccc(F)cc2F)on1 [Molecule 20]
1 to 10	O=C(NCC1CCN(CC2CCCCC2)CC1)c1cc(-c2ccc(F)cc2F)on1 [Molecule 22]
0.1 to 1	O=C(NCC1CCN(CCc2ccccc2)CC1)c1cc(-c2ccc(F)cc2F)on1 [Molecule 23]
≤ 0.1	O=C(NCC1CCN(CCCc2ccccc2)CC1)c1cc(-c2ccc(F)cc2F)on1 [Molecule 24]
≤ 0.1	COc1ccccc1CN1CCC(CNC(=O)c2cc(-c3ccc(F)cc3F)on2)CC1 [Molecule 25]
≤ 0.1	COc1cccc(CN2CCC(CNC(=O)c3cc(-c4ccc(F)cc4F)on3)CC2)c1 [Molecule 26]
≤ 0.1	COc1ccc(CN2CCC(CNC(=O)c3cc(-c4ccc(F)cc4F)on3)CC2)cc1 [Molecule 27]
0.1 to 1	O=C(NCC1CCN(Cc2ccccn2)CC1)c1cc(-c2ccc(F)cc2F)on1 [Molecule 28]
0.1 to 1	O=C(NCC1CCN(Cc2cccnc2)CC1)c1cc(-c2ccc(F)cc2F)on1 [Molecule 29]

Ki [µM]	Structure (SMILES)
1 to 10	O=C(NCC1CCN(Cc2ccncc2)CC1)c1cc(-c2ccc(F)cc2F)on1 [Molecule 30]
1 to 10	CN(C)C(=O)c1cccc(CN2CCC(CNC(=O)c3cc(-c4ccc(F)cc4F)on3)CC2)c1 [Molecule 31]
> 10	O=C(NCC1CCN(c2ccccc2)CC1)c1cc(-c2ccc(F)cc2F)on1 [Molecule 32]
≤ 0.1	Cc1ccc(CN2CCC(CNC(=O)c3cc(-c4ccc(F)cc4F)on3)CC2)cc1 [Molecule 33]
≤ 0.1	O=C(NCC1CCN(Cc2ccc(Cl)cc2)CC1)c1cc(-c2ccc(F)cc2F)on1 [Molecule 34]
> 10	N#Cc1ccc(CN2CCC(CNC(=O)c3cc(-c4ccc(F)cc4F)on3)CC2)cc1 [Molecule 35]
≤ 0.1	COC(=O)c1ccc(CN2CCC(CNC(=O)c3cc(-c4ccc(F)cc4F)on3)CC2)cc1 [Molecule 36]
≤ 0.1	CN(C)c1ccc(CN2CCC(CNC(=O)c3cc(-c4ccc(F)cc4F)on3)CC2)cc1 [Molecule 37]
> 10	O=C(NCC1CCN(Cc2ccc(OC(F)(F)F)cc2)CC1)c1cc(-c2ccc(F)cc2F)on1 [Molecule 38]
≤ 0.1	CC(=O)Nc1ccc(CN2CCC(CNC(=O)c3cc(-c4ccc(F)cc4F)on3)CC2)cc1 [Molecule 39]
1 to 10	O=C(O)c1ccc(CN2CCC(CNC(=O)c3cc(-c4ccc(F)cc4F)on3)CC2)cc1 [Molecule 40]
1 to 10	CN(C)C(=O)c1ccc(CN2CCC(CNC(=O)c3cc(-c4ccc(F)cc4F)on3)CC2)cc1 [Molecule 41]
≤ 0.1	O=C(NCC1CCN(C/C=C/c2ccccc2)CC1)c1cc(-c2ccc(F)cc2F)on1 [Molecule 42]
> 10	O=C(NCC1CCN(Cc2ccc([N+](=O)[O-])cc2)CC1)c1cc(-c2ccc(F)cc2F)on1 [Molecule 43]
≤ 0.1	O=C(NCC1CCN(CCCCc2ccccc2)CC1)c1cc(-c2ccc(F)cc2F)on1 [Molecule 45]
≤ 0.1	COc1ccc(CN2CCC(CNC(=O)c3cc(-c4ccc(F)cc4F)on3)CC2)cc1OC [Molecule 46]
0.1 to 1	COc1cc(CN2CCC(CNC(=O)c3cc(-c4ccc(F)cc4F)on3)CC2)cc(OC)c1OC [Molecule 47]
1 to 10	CS(=O)(=O)c1ccc(CN2CCC(CNC(=O)c3cc(-c4ccc(F)cc4F)on3)CC2)cc1 [Molecule 48]
0.1 to 1	NS(=O)(=O)c1ccc(CN2CCC(CNC(=O)c3cc(-c4ccc(F)cc4F)on3)CC2)cc1 [Molecule 49]

Ki [µM]	Structure (SMILES)
≤ 0.1	O=C(NCC1CCN(Cc2ccc(O)cc2)CC1)c1cc(-c2ccc(F)cc2F)on1 [Molecule 50]
> 10	O=C(NCC1CCN(Cc2ccc(C(F)(F)F)cc2)CC1)c1cc(-c2ccc(F)cc2F)on1 [Molecule 51]
0.1 to 1	O=C(NCC1CCN(Cc2ccc(F)cc2)CC1)c1cc(-c2ccc(F)cc2F)on1 [Molecule 52]
0.1 to 1	O=C(NCC1CCN(Cc2ccc(Br)cc2)CC1)c1cc(-c2ccc(F)cc2F)on1 [Molecule 53]
1 to 10	O=C(NCC1CCN(C/C=C/c2ccccc2)CC1)c1cc(-c2ccc(F)cc2F)n[nH]1 [Molecule 58]
≤ 0.1	O=C(NCC1CCN(C/C=C/c2ccccc2)CC1)c1cn(-c2ccc(F)cc2F)nn1 [Molecule 61]
0.1 to 1	O=C(NCC1CCN(C/C=C/c2ccccc2)CC1)c1cnn(-c2ccc(F)cc2F)c1 [Molecule 64]
1 to 10	O=C(NCC1CCN(C/C=C/c2ccccc2)CC1)c1cnn(-c2ccc(F)cc2F)n1 [Molecule 68]
0.1 to 1	O=C(NCC1CCN(C/C=C/c2ccccc2)CC1)c1nnn(-c2ccc(F)cc2F)n1 [Molecule 72]
1 to 10	O=C(NCC1CCN(C/C=C/c2ccccc2)CC1)c1nc(-c2ccc(F)cc2F)c[nH]1 [Molecule 77]
1 to 10	O=C(NCC1CCN(C/C=C/c2ccccc2)CC1)c1nc(-c2ccc(F)cc2F)cs1 [Molecule 80]
1 to 10	O=C(NCC1CCN(C/C=C/c2ccccc2)CC1)c1csc(-c2ccc(F)cc2F)n1 [Molecule 82]
≤ 0.1	O=C(NCC1CCN(C/C=C/c2ccccc2)CC1)c1ncc(-c2ccc(F)cc2F)s1 [Molecule 85]
≤ 0.1	O=C(NCC1CCN(C/C=C/c2ccccc2)CC1)c1cnc(-c2ccc(F)cc2F)s1 [Molecule 87]
≤ 0.1	O=C(NCC1CCN(C/C=C/c2ccccc2)CC1)c1nnc(-c2ccc(F)cc2F)s1 [Molecule 89]
≤ 0.1	O=C(NCC1CCN(C/C=C/c2ccccc2)CC1)c1cc(-c2ccc(F)cc2F)no1 [Molecule 92]
0.1 to 1	O=C(NCC1CCN(C/C=C/c2ccccc2)CC1)c1ncc(-c2ccc(F)cc2F)o1 [Molecule 94]
≤ 0.1	O=C(NCC1CCN(C/C=C/c2ccccc2)CC1)c1nnc(-c2ccc(F)cc2F)o1 [Molecule 96]
0.1 to 1	O=C(NCC1CCN(C/C=C/c2ccccc2)CC1)c1nc(-c2ccc(F)cc2F)no1 [Molecule 99]
